Test results from patent US20120190752A1, “EXO-S-MECAMYLAMINE METHOD, USE, AND COMPOUND FOR TREATMENT” (Targacept Inc., priority 2009, published 2012).

Tested on: subjects with major depressive disorder (MDD) who were inadequate responders to citalopram
Experiment: SIS (Sheehan Irritability Scale), total and individual items, Phase 2b add-on trial
Format: in vivo, human
Parameters: SIS Adj. Mean change / SIS total score change Adjusted Mean / SIS Anger With Others change Adjusted Mean / SIS Anger With Self change Adjusted Mean / SIS Edginess change Adjusted Mean / SIS Irritability change Adjusted Mean / SIS Moodiness change Adjusted Mean / SIS Temper change Adjusted Mean: scale not given here
Procedure: In more detail, a multi-center double-blind, randomized, placebo-controlled, parallel group, flexible dose titration study of TC-5214 as adjunctive therapy in subjects with major depressive disorder (MDD) who were inadequate responders to citalopram was conducted in centers in the US and India. The study consisted of a screening period, baseline/washout period, open-label phase, double-blind phase, and a follow-up visit. Subject participation in the study could continue for up to 16 weeks of treatment. Following a washout period of up to 28 days for other antidepressants, subjects with MDD and a MADRS total score >/=28 and a Clinical Global Impression-Severity (CGI-S) score >/=4 were enrolled on Day 1 into an open-label citalopram-only phase of the study. This phase lasted 8 weeks, with citalopram (CIT) dose increased from a once-daily dose of 20 mg (Day 1 through Week 4) to 40 mg (Week 4 through Week 8). A total of 579 subjects entered the open-label citalopram phase. At Week 8, subjects who tolerated 40 mg CIT, but whose MADRS score was reduced <50% from baseline and no lower than 17, and CGI-S≧4, were considered inadequate responders. These subjects (n=270) were randomized in a double-blind fashion to receive either placebo or TC-5214-23 as add-on therapy to continued CIT. The double-blind phase of the study also lasted 8 weeks (Week 8 to Week 16). Study drug, TC-5214-23 or placebo, was started at 2 mg daily (1 mg twice per day [BID] dosing), added on to continuing CIT (40 mg PO qd). After 2 weeks of treatment, the dose of TC-5214 could be increased to 4 mg (2 mg BID) or continued unchanged, with up-titration based upon good tolerability and inadequate therapeutic response. After a further 2 weeks, the dose of TC-5214 could be increased again to 8 mg (4 mg BID) if judged appropriate by the investigator, based upon good tolerability and inadequate therapeutic response. At any time during the double-blind phase of the study, placebo or TC-5214-23 could be reduced to the previous dose level following the emergence of unacceptable adverse events (AEs). […] At this follow-up, any signs or symptoms of relapse were evaluated. If a subject was prematurely discontinued from the study between Week 8 and Week 16 for any reason, the investigator was to make every effort to perform all evaluations as per protocol, assuming the subject had reached the end of the double-blind add-on treatment phase. These evaluations were to be made as soon as possible and within 2 weeks of discontinuation. […] There was no meaningful difference in results as a function of age, gender, site, or smoking status. [table] With regard to efficacy endpoints, the following tables present efficacy used in the ITT (Intent-to-Treat) and PP (Per Protocol) populations unless otherwise specific. The primary inference was based upon Week 16 visit using the ITT population. Change from baseline was obtained by subtracting the baseline values from the individual on-treatment values. Change from Week 16 was obtained by subtracting the Week 16 values from the individual follow-up visit (Week 18/19) values. If either the baseline or Week 16 or on-treatment or follow-up value was missing, the change from baseline or Week 16 value was also set to missing. To account for missing data, the last observation carry forward (LOCF) method was used for the ITT and PP populations. Thus, the last available on-therapy observation for a subject, including the observation at premature discontinuation, was used to estimate subsequent missing data points. For efficacy, baseline data were collected at Week 8 in the double-blind augmentation phase electronic case report form pages. For SIS, the endpoint was the change from Week 8 (double-blind baseline) to Week 16 of the SIS. Changes were analyzed using ANCOVA. Each SIS item score was also analyzed using ANCOVA. […]

[1] = ITT population, Double Blind Week 16 LOCF, change from DB baseline
[2] = ITT population, Double Blind Week 18 LOCF (Follow-up), change from Week 16
[3] = PP population, Double Blind Week 16 LOCF, change from DB baseline
[4] = PP population, Double Blind Week 18 LOCF (Follow-up), change from Week 16

CN[C@@]1(C)[C@@H]2CC[C@@H](C2)C1(C)C [TC5214]
SIS Anger With Others change Adjusted Mean [1]: −2.56 | SIS Anger With Others change Mean Difference between TC-5214 and Placebo [1]: 1.22 | SIS Anger With Self change Adjusted Mean [1]: −2.29 | SIS Anger With Self change Mean Difference between TC-5214 and Placebo [1]: 1.01 | SIS Edginess change Adjusted Mean [1]: −2.55 | SIS Edginess change Mean Difference between TC-5214 and Placebo [1]: 1.14 | SIS Frustration change Adjusted Mean [1]: −2.74 | SIS Frustration change Mean Difference between TC-5214 and Placebo [1]: 1.42 | SIS Irritability change Adjusted Mean [1]: −2.74 | SIS Irritability change Mean Difference between TC-5214 and Placebo [1]: 1.38 | SIS Moodiness change Adjusted Mean [1]: −3.00 | SIS Moodiness change Mean Difference between TC-5214 and Placebo [1]: 1.51 | SIS Temper change Adjusted Mean [1]: −2.37 | SIS Temper change Mean Difference between TC-5214 and Placebo [1]: 1.19 | SIS Anger With Others change Adjusted Mean [2]: −0.07 | SIS Anger With Others change Mean Difference between TC-5214 and Placebo [2]: 0.01 | SIS Anger With Self change Adjusted Mean [2]: −0.07 | SIS Anger With Self change Mean Difference between TC-5214 and Placebo [2]: 0.09 | SIS Edginess change Adjusted Mean [2]: −0.24 | SIS Edginess change Mean Difference between TC-5214 and Placebo [2]: 0.01 | SIS Frustration change Adjusted Mean [2]: −0.09 | SIS Frustration change Mean Difference between TC-5214 and Placebo [2]: −0.06 | SIS Irritability change Adjusted Mean [2]: −0.14 | SIS Irritability change Mean Difference between TC-5214 and Placebo [2]: −0.08 | SIS Moodiness change Adjusted Mean [2]: −0.13 | SIS Moodiness change Mean Difference between TC-5214 and Placebo [2]: −0.05 | SIS Temper change Adjusted Mean [2]: −0.11 | SIS Temper change Mean Difference between TC-5214 and Placebo [2]: −0.07 | SIS Anger With Others change Adjusted Mean [3]: −2.77 | SIS Anger With Others change Mean Difference between TC-5214 and Placebo [3]: 1.42 | SIS Anger With Self change Adjusted Mean [3]: −2.54 | SIS Anger With Self change Mean Difference between TC-5214 and Placebo [3]: 1.13 | SIS Edginess change Adjusted Mean [3]: −2.81 | SIS Edginess change Mean Difference between TC-5214 and Placebo [3]: 1.36 | SIS Frustration change Adjusted Mean [3]: −3.00 | SIS Frustration change Mean Difference between TC-5214 and Placebo [3]: 1.59 | SIS Irritability change Adjusted Mean [3]: −3.00 | SIS Irritability change Mean Difference between TC-5214 and Placebo [3]: 1.58 | SIS Moodiness change Adjusted Mean [3]: −3.34 | SIS Moodiness change Mean Difference between TC-5214 and Placebo [3]: 1.71 | SIS Temper change Adjusted Mean [3]: −2.55 | SIS Temper change Mean Difference between TC-5214 and Placebo [3]: 1.36 | SIS Anger With Others change Adjusted Mean [4]: −0.10 | SIS Anger With Others change Mean Difference between TC-5214 and Placebo [4]: 0.03 | SIS Anger With Self change Adjusted Mean [4]: −0.09 | SIS Anger With Self change Mean Difference between TC-5214 and Placebo [4]: 0.11 | SIS Edginess change Adjusted Mean [4]: −0.27 | SIS Edginess change Mean Difference between TC-5214 and Placebo [4]: 0.05 | SIS Frustration change Adjusted Mean [4]: −0.09 | SIS Frustration change Mean Difference between TC-5214 and Placebo [4]: −0.04 | SIS Irritability change Adjusted Mean [4]: −0.14 | SIS Irritability change Mean Difference between TC-5214 and Placebo [4]: −0.07 | SIS Moodiness change Adjusted Mean [4]: −0.13 | SIS Moodiness change Mean Difference between TC-5214 and Placebo [4]: −0.01 | SIS Temper change Adjusted Mean [4]: −0.14 | SIS Temper change Mean Difference between TC-5214 and Placebo [4]: −0.00
